Columns and labels:
5-HT3 receptors = target: T1, 5-HT3 receptors (Homo sapiens, UniProt P46098); settings: compared to first generation 5-HT3 receptor antagonists dolasetron, granisetron and ondansetron; cited from earlier work
T1 sequence (P46098 24-478): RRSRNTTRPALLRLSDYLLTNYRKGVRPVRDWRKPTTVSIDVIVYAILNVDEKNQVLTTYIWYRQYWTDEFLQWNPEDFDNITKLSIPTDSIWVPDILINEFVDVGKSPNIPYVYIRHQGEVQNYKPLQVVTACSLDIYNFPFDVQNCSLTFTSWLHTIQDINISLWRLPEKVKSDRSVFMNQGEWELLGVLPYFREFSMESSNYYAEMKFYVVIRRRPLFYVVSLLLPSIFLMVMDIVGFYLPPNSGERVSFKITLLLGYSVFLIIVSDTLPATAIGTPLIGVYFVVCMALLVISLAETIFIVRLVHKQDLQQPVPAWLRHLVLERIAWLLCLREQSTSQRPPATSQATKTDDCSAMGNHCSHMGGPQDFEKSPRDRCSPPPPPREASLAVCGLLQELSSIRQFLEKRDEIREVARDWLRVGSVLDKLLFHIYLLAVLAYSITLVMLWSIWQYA

[1] = cited from earlier work
[2] = system: chemotherapy-induced nausea and vomiting (CINV); assay: Clinical study of complete response (absence of emetic episodes) in chemotherapy patients; Cycle 1 palonosetron, Cycle 2 granisetron semi-solid delivery vehicle; type: in vivo, human; settings: Cycle 1, palonosetron 0.25 mg intravenous
Experimental: As described in Example 2, the patients in the study were undergoing either a moderately emetogenic chemotherapy regimen or a highly emetogenic chemotherapy regimen. In a first cycle of the study, the patients were treated with (i) 5 mg of granisetron in a semi-solid drug delivery vehicle, administered subcutaneously; (ii) 10 mg of granisetron in a semi-solid drug delivery vehicle, administered subcutaneously; or (iii) palonosetron, 0.25 mg administered intravenously. Patients who received palonosetron in Cycle 1 and remained on study were re-randomized for treatment with 5 mg or 10 mg of granisetron, administered as comprised within a semi-solid drug delivery vehicle via subcutaneous injection of 250 mg vehicle or 500 mg vehicle.
In Cycle 1 of the study, 1395 patients receiving single doses of a moderately emetogenic chemotherapy (MEC) regimen or a highly emetogenic chemotherapy (HEC) regimen were randomized for treatment with one of three regimens: a semi-solid drug delivery vehicle comprising granisetron, administered subcutaneously to provide (i) 5 mg granisetron or (ii) 10 mg granisetron (via subcutaneous injection of 250 mg or 500 mg vehicle, respectively) or (iii) palonosetron, 0.25 mg intravenous. The palonosetron dose administered was the recommended dose of palonosetron (ALOXI®) for treatment of chemotherapy-induced nausea and vomiting in adults. Palonosetron, when administered intravenously at the above-dose, is indicated in adults for the prevention of both acute and delayed vomiting associated with initial and repeated courses of moderately emetogenic chemotherapy, and acute nausea and vomiting associated with initial and repeat courses of highly emetogenic chemotherapy.
Patients who received palonosetron in Cycle 1 and remained in the study were re-randomized for treatment in Cycle 2 with 5 mg or 10 mg granisetron administered subcutaneously as 250 mg or 500 mg, respectively, of the semi-solid drug delivery vehicle. […]

[3] = compared to first generation 5-HT3 receptor antagonists dolasetron, granisetron and ondansetron

SMILES: O=C1c2cccc3c2[C@H](CCC3)CN1[C@@H]1CN2CCC1CC2 [palonosetron]
- binding affinity to the 5-HT3 receptors (5-HT3 receptors): higher binding affinity
- safety profile ([1]; as reported in the literature (Eisenberg et al. 2004)): excellent safety profile
- half-life [1, 3]: significantly longer half-life
- potency [1, 3]: higher potency
- overall (0-120 hour) failures ([2]; HEC patients (94/238)): 39.5%
- overall (0-120 hour) failures ([2]; MEC patients (100/208)): 48.1%
- overall (0-120 hour) failures ([2]; all 446 patients (MEC + HEC)): 43.5%
